According to patent US12630516B2, “Compounds” (NRG Therapeutics Ltd., priority 2020, dated 2026):
Values after ≈ are worked out from the molar mass of the structure shown.

What was measured:
mPTP = mPTP activity (Ca2+ retention, Fluo5N FLIPR) assay in isolated rat liver mitochondria; format: biochemical; conditions: average value from multiple experiments (n ≥ 2)
From the text: Pharmacological inhibition or modulation of the mPTP can be measured in well characterised ‘Ca^2+ retention’ assays performed in isolated mitochondria. In vitro, isolated mitochondria rapidly sequester exogenous Ca^2+ until the intramitochondrial Ca^2+ concentration reaches the threshold for mPTP activation. Once the pore is activated, mitochondrial integrity is compromised and the stored Ca^2+ is released. The distribution of Ca^2+ between extra- and intra-mitochondrial compartments can be measured in real time with the use of membrane-impermeant Ca^2+ sensitive fluorescent dyes. Depending on the configuration of the assay, inhibition or modulation of the mPTP either delays the opening of the pore or increases the concentration of Ca^2+ required to induce mPTP opening.
MPTP activity was measured in mitochondria freshly isolated from female Sprague Dawley (250 to 300 gram) rat livers using the following method. Cervical dislocation was performed on the rat. The liver was then perfused in-situ with ˜40 ml cold Dulbecco's Phosphate Buffered Saline (DPBS) prior to dissection and transferred into 30 ml Isolation Buffer (250 mM Sucrose, 10 mM KCl, 1 mM EGTA, 1 mM EDTA, 25 mM HEPES, adjusted to pH 7.5 with 1M NaOH). Each lobe of the liver was then removed from the buffer, minced using tweezers and a scalpel into ˜5 mm pieces then transferred into a 50 ml Potterton dounce homogenization tube on ice containing 30 ml ice-cold centrifugation buffer (300 mM Trehalose, 25 mM HEPES, 1 mM EGTA, 1 mM EDTA, 10 mM KCl, adjusted to pH 7.5 with 1M NaOH and supplemented with 0.1% bovine serum albumin (BSA) and complete protease inhibitor cocktail (one tablet of inhibitor per 50 mls of buffer). Homogenisation was carried out using a teflon pestle at 1800 rpm. The slurry was centrifuged at 800 g for 10 min at 4° C., then the supernatant centrifuged at 10,000 g for 10 min. The pellet was washed once with FLIPR assay buffer (75 mM Mannitol, 25 mM Sucrose, 5 mM Potassium Phosphate Monobasic, 20 mM Tr is base, 100 mM KCl, 0.1% BSA adjusted to pH 7.4 with 5M HCl) centrifuged again, then resuspended in FLIPR assay buffer to a concentration of 8.8 mg/ml protein.
Tested compounds (10 mM stock in DMSO) were serially diluted in DMSO in half log steps to generate 10 test concentrations (final concentrations in assay 30 μM to 1 nM). An intermediate dilution of 5 μl DMSO samples into 247 μl FLIPR assay buffer was carried out prior to transfer of 5 μl into duplicate wells of a 384 well polypropylene assay plate. Control wells were 0.5% (v/v) DMSO and 5 μM cyclosporin A.
A stock mitochondria/Fluo5N assay solution was prepared in 5.6 ml FLIPR assay buffer (at RT) supplemented with succinate disodium salt (10 mM), rotenone (1 μM), Fluo5N pentapotassium salt (2 μM) and 1 ml mitochondria suspension, then transferred (15 μl) into the assay plate containing test compounds and incubated for 10 min at RT. Assay plates were then transferred to a FLIPR Tetra plate reader (Molecular Devices). Dye fluorescence was then measured every 3 sec for a total of 10 min. After 12 sec, a 2.5 μl bolus of CaCl2 (75 μM) was added from a source plate containing 675 μM CaCl2 in FLIPR assay buffer. IC50 values for tested compounds were calculated using the fluorescence value collected at the 10 min timepoint with % inhibition calculated using the DMSO control and cyclosporin A values as […] respectively.

[1] = Hepatocyte clearance assay, primary rat hepatocytes; format: in vitro ADME; conditions: average value from two experiments
Description: (§1) In vitro clearance studies were performed in primary rat and human hepatocytes (BioIVT). Vials of cryopreserved rat or human hepatocytes were thawed in a 37° C. water bath for 2 min. Cells were transferred into thawing medium (Williams' Medium E containing 30% Percoll, 1×GlutaMAX-1, 15 mM HEPES, 5% fetal bovine serum (FBS), 4 μg/ml insulin, 1 μM dexamethasone), centrifuged at 100 g for 10 min then resuspended in culture medium (Leibovitz's L-15 Medium) at a concentration of 0.5×10^6 viable cells/mL (number of viable cells assessed using AO/PI staining). Hepatocytes (198 μL) were transferred into wells of a 96-well non-coated plate and placed in a 37° C. incubator for 10 min. Test compound solutions were prepared from 10 mM stocks in DMSO, diluted to 100 μM in 50% (v/v in water) acetonitrile. Test compound samples (2 μl) were added to each well of hepatocytes and incubated at 37° C. […] Peak areas were determined from extracted ion chromatograms. The slope value, k, was determined by linear regression of the natural logarithm of the remaining percentage of the parent drug vs. incubation time curve. The in vitro half-life (in vitro t½) was determined from the slope value: in vitro t½=0.693/k. […]

[2] = Hepatocyte clearance assay, primary human hepatocytes; format: in vitro ADME; conditions: average value from two experiments
Description: as §1

[3] = PBS and FaSSIF solubility; format: physicochemical; conditions: for solubility at 2 h: FaSSIF, kinetic from dmso stock, Fasted state simulated intestinal fluid, 2 hr at 25° C.
Description: Test compounds were prepared as 10 mM stocks in DMSO and 15 μl samples transferred in duplicate into 1.5 mL glass flat bottom vials (BioTech Solutions). Fasted state simulated intestinal fluid (FaSSIF) or PBS (pH 7.4) was added to each vial to final volume of 500 μl. One PTFE encapsulated stir stick (V&P Scientific) was placed in each vial before sealing with PTFE/SIL plugs (BioTech Solutions). Vials were shaken at 1100 rpm for 2 hr at 25° C. Samples were then filtered through MultiScreen Solvinert filter plates (Millipore) via vacuum filtration. Aliquots of filtrate (5 μl) plus 5 μl DMSO were diluted in 490 μl 50% acetonitrile in water containing internal standard. The filtrate was analysed and quantified against a standard of known concentration using LC-MS/MS. Solubility values of the test compound and control compound were calculated as follows: [Sample]=(Area ratiossample*INJ VOL STD*DFSample*[STD])/(Area ratio STD*INJ VOLSample).

For `CO[C@H]1Cc2ccccc2[C@@H]1NC(=O)/C=C/c1ccc2c(Cl)n[nH]c2c1` [Example 72, (E)-3-(3-chloro-1H-indazol-6-yl)-N-((1S,2S)-2-methoxy-2,3-dihydro-1H-inden-1-yl)acrylamide], the “mPTP Rat liver pIC50” value (mPTP) was 8.2.
With `Cc1c(F)cccc1NC(=O)/C=C/c1ccc2cn[nH]c2c1` [Comparative Example 1, (E)-N-(2-methyl-3-fluorophenyl)-3-(1H-indazol-6-yl)acrylamide, reference compound] the “Rat heps Clint uL/min/10^6 cells” value [1] was 89 uL/min/10^6 cells, the “Human heps Clint uL/min/10^6 cells” value [2] was 13 uL/min/10^6 cells and the “Solubility PBS uM (pH 7.4)” value ([3]; PBS pH 7.4, 2 hr at 25° C.) was 0.9 uM.
With `Cc1n[nH]c2cc(/C=C/C(=O)N[C@@H]3CCCC[C@H]3C)ccc12` (racemic) [Example 43, Racemic-(E)-3-(3-methyl-1H-indazol-6-yl)-N-((1R,2R)-2-methylcyclohexyl)acrylamide] the “mPTP Rat liver pIC50” value (mPTP) was 6.3.
With `O=C(/C=C/c1cc2[nH]nnc2cc1F)NC1CCc2ccccc21` (stereo not drawn) [Example 27, (E)-N-(2,3-dihydro-1H-inden-1-yl)-3-(5-fluoro-1H-benzo[d][1,2,3]triazol-6-yl) acrylamide] the “mPTP Rat liver pIC50” value (mPTP) was 6.6.
In the case of `Cc1c(F)cccc1NC(=O)/C=C/c1ccc2oc(=O)[nH]c2c1` [Example 6, (E)-N-(3-fluoro-2-methylphenyl)-3-(2-oxo-2,3-dihydrobenzo[d]oxazol-5-yl)acrylamide], the solubility at 2 h [3] is reported as 18 µM (≈ 5.62 µg/mL).
With `Cc1n[nH]c2cc(/C=C/C(=O)N[C@H]3c4ccccc4OC[C@@H]3C)ccc12` (single isomer, unassigned) [Example 65c] the “mPTP Rat liver pIC50” value (mPTP) was 7.7, the hepatocyte CLint at 1 µM ([1]; primary rat hepatocytes (cryopreserved), read-out: Rat heps Clint uL/min/10^6 cells) was 37.9 µL/min/1e6 cells and the hepatocyte CLint at 1 µM ([2]; primary human hepatocytes (cryopreserved), read-out: Human heps Clint uL/min/10^6 cells) was 9.4 µL/min/1e6 cells. It also gave a solubility at 2 h [3] of 9.2 µM (≈ 3.2 µg/mL).
With `O=C(/C=C/c1ccc2c(C(F)(F)F)n[nH]c2c1)NC1CCc2ccccc21` (stereo not drawn) [Example 28, (E)-N-(2,3-dihydro-1H-inden-1-yl)-3-(3-(trifluoromethyl)-1H-indazol-6-yl) acrylamide] the “mPTP Rat liver pIC50” value (mPTP) was 6.7.
